We go through 13 molecules from ChEMBL document CHEMBL5291721, “A preclinical secondary pharmacology resource illuminates target-adverse drug reaction associations of marketed drugs” (Nat Commun, 2023).

One assay deals with Acetylcholinesterase (Homo sapiens, UniProt P22303). The assay is classed as functional.
Assay [1] concerns the target T1, Muscarinic acetylcholine receptor M2 (Homo sapiens, UniProt P08172).
T1 sequence (P08172 whole entry): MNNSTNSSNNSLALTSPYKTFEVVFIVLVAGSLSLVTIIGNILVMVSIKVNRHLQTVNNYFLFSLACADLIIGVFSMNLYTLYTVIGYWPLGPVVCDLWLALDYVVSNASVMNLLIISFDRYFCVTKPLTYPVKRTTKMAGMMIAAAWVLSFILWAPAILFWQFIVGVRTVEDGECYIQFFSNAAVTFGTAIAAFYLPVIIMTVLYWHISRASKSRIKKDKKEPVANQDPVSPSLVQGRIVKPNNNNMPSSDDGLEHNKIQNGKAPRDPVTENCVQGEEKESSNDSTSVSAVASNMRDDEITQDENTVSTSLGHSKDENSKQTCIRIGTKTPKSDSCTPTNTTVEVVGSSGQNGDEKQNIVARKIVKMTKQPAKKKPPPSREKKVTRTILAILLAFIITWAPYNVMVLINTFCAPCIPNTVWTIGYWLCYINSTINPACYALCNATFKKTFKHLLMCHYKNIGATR

The target in a further assay is D(1A) dopamine receptor (Homo sapiens, UniProt P21728).
Chain of D(1A) dopamine receptor (P21728 whole entry): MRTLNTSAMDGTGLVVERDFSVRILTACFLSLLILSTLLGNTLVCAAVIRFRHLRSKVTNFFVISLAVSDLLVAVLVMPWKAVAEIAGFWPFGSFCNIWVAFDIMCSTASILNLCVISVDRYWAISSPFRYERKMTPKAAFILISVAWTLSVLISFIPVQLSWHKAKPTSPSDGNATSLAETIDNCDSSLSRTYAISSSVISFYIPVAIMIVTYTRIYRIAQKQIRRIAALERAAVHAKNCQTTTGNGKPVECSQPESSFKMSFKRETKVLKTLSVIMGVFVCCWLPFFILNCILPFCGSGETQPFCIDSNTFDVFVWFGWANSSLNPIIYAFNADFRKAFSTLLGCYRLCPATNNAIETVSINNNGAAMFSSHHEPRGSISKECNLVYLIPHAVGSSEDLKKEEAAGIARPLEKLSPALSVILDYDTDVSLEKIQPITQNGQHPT
Assay [2] has as its target T2, Retinoic acid receptor beta (Homo sapiens, UniProt P10826).
T2 sequence (P10826 whole entry): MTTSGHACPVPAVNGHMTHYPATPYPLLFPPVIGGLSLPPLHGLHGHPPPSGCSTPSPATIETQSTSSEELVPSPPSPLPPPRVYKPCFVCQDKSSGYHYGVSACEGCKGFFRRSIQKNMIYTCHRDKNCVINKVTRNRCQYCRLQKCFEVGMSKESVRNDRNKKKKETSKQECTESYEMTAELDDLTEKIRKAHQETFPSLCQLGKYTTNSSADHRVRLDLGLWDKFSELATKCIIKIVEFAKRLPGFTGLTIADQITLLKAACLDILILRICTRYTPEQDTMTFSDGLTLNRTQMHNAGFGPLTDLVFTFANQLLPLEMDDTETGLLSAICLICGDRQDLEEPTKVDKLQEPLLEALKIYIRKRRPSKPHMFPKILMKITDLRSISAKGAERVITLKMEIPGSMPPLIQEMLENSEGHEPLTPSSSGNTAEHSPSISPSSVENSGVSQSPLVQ
The assay is classed as functional, cell-based.

For assay [3], the target named is T3, Retinoic acid receptor gamma (Homo sapiens, UniProt P13631).
T3 sequence (P13631 whole entry): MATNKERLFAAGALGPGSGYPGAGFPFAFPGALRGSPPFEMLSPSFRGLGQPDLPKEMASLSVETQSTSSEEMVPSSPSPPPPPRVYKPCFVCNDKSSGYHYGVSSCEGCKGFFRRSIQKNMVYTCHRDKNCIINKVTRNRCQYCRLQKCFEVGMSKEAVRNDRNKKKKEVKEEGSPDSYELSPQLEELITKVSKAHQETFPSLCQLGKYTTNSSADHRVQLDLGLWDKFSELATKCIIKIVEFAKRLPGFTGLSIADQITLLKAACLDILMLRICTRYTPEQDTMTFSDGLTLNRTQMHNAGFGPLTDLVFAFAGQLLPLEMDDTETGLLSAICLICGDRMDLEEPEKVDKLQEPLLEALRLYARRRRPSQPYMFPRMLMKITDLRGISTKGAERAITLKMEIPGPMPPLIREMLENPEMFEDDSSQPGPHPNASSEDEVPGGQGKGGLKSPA
In kind it is functional, cell-based.

The target in assay [4] is T4, Bile acid receptor (Homo sapiens, UniProt Q96RI1).
T4 sequence (Q96RI1 whole entry): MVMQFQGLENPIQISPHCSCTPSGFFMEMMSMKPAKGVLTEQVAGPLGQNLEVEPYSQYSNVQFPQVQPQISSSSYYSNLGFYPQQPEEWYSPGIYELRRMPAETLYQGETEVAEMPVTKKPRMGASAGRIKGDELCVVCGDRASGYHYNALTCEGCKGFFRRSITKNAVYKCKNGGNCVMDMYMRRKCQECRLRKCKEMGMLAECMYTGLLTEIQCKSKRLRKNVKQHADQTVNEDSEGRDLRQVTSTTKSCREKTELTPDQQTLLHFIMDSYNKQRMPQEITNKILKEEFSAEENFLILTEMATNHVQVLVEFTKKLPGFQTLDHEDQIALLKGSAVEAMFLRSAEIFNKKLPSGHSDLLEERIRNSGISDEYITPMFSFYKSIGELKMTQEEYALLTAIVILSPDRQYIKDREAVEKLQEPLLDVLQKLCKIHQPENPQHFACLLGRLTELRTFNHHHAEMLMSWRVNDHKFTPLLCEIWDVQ
The assay is classed as functional.

The target of assay [5] is T5, Nuclear receptor subfamily 1 group I member 3 (Homo sapiens, UniProt Q14994).
T5 sequence (Q14994 whole entry): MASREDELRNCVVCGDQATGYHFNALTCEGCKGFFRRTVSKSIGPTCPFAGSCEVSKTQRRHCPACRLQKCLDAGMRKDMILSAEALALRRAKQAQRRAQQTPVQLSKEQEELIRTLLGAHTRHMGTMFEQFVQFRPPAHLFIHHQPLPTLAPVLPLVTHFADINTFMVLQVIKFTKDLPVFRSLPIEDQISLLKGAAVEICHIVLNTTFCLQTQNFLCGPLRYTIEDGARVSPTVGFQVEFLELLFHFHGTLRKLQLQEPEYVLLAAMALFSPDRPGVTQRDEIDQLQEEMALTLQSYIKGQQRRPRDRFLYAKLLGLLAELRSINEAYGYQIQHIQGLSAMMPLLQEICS
In kind it is functional.

The target of assay [6] is T4, Bile acid receptor. The assay is classed as functional. The source holds these as a separate data set.
Assay [7] addresses T6, Oxysterols receptor LXR-beta (Homo sapiens, UniProt P55055).
T6 sequence (P55055 whole entry): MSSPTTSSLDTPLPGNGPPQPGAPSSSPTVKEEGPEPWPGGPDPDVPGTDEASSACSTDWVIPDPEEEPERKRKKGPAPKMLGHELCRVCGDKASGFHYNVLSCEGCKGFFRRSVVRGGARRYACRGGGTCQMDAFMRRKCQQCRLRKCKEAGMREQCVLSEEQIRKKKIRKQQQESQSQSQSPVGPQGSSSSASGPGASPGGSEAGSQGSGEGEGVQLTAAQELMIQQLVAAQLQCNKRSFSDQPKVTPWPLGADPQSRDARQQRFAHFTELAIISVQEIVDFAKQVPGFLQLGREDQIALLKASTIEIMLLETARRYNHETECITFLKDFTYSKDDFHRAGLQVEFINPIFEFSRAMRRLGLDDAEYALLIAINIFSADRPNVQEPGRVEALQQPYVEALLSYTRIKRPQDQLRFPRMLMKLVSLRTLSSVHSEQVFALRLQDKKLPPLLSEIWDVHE
The assay is classed as functional.

The structures appear in SMILES notation. Where only a bound is given, the exact number is not on record here.
Also: assay procedure not described here.

Chain of Acetylcholinesterase (P22303 whole entry): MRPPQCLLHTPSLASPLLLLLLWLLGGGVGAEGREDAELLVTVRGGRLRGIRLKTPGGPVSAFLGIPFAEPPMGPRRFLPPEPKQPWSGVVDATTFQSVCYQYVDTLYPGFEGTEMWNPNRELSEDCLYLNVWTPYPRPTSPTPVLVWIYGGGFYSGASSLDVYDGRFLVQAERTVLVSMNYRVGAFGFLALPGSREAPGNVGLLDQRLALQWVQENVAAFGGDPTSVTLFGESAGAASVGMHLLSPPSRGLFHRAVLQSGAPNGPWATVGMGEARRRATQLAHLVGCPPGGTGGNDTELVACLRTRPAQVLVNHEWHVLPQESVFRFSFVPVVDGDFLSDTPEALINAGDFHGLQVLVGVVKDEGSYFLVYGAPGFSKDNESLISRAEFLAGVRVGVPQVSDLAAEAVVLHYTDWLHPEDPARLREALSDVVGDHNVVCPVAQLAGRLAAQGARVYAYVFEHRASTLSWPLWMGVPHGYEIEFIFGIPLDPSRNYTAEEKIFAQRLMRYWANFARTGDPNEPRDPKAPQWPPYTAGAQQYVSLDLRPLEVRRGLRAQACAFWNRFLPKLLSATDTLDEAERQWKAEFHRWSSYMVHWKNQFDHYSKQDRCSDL

`CO/N=C(\C(=O)N[C@@H]1C(=O)N2C(C(=O)[O-])=C(C[N+]3(C)CCCC3)CS[C@H]12)c1csc(N)n1`: the AC50 at Acetylcholinesterase was greater than 300 µM.

For `Nc1nc(N)c2nc(-c3ccccc3)c(N)nc2n1`, the concentration at half-maximal activity (AC50) in [1] is greater than 30 µM.

Regarding `Oc1ncnc2[nH]ncc12` [ALLOPURINOL], in assay [1], the AC50 is greater than 30 µM.

As to `COC(=O)[C@@H]1CC2=CC(=O)CC[C@]2(C)[C@@]23O[C@@H]2C[C@@]2(C)[C@@H](CC[C@@]24CCC(=O)O4)[C@H]13` [EPLERENONE], the AC50 on Acetylcholinesterase was greater than 30 µM.

At D(1A) dopamine receptor, `CCC(=O)O[C@H]1[C@H](O[C@@H]2[C@@H](C)[C@H](O[C@H]3C[C@@](C)(OC)[C@@H](O)[C@H](C)O3)[C@@H](C)C(=O)O[C@H](CC)[C@@](C)(O)[C@H](O)[C@@H](C)C(=O)[C@H](C)C[C@@]2(C)O)O[C@H](C)C[C@@H]1N(C)C` [ERYTHROMYCIN PROPIONATE] gave an AC50 of 17 µM.

In [1], `CC(C)C(=O)Nc1ccc([N+](=O)[O-])c(C(F)(F)F)c1` [FLUTAMIDE] had an AC50 greater than 30 µM.

For `COc1ccc2c(c1)C(=O)N(CCc1ccc(S(=O)(=O)NC(=O)NC3CCCCC3)cc1)C(=O)C2(C)C` [GLIQUIDONE], the AC50 in assay [2] is greater than 30 µM; in assay [3], greater than 30 µM; on Bile acid receptor [4], greater than 10 µM; in assay [5], 4.8 µM; on Bile acid receptor [6], greater than 30 µM; in assay [7], greater than 30 µM.

For `CC(C)Cc1ccc(CC(=O)O)cc1` [IBUFENAC], the AC50 at Acetylcholinesterase was greater than 30 µM.

Consider `CC(C)NNC(=O)c1ccncc1` [IPRONIAZID], for which, on Acetylcholinesterase, the AC50 was greater than 30 µM.

In the case of `OC[C@@H](O)[C@@H](O)[C@H](O)[C@H](O)CO` [MANNITOL], the AC50 on D(1A) dopamine receptor was greater than 30 µM.

`NC(=O)c1cnccn1` [PYRAZINAMIDE] came in with an AC50 in assay [1] greater than 30 µM.

Regarding `Cc1cc2c(cc1CC(=O)c1sccc1S(=O)(=O)Nc1onc(C)c1Cl)OCO2` [SITAXENTAN], the AC50 on D(1A) dopamine receptor is greater than 30 µM.

In [5], `Cc1ccc(C(=O)c2cc(O)c(O)c([N+](=O)[O-])c2)cc1` [TOLCAPONE] showed an AC50 of 13 µM.
